In patent US7041303B2, “Use of moxonidine for postmyocardial infarction treatment” (Solvay Pharmaceuticals GmbH, priority 1999, dated 2006):

What was measured:
[1] = system: Wistar rats with chronic myocardial infarction (MI); assay: Wistar rats with chronic myocardial infarction (coronary artery ligation): body weight, heart weight, heart rate, MAP, mortality; format: in vivo; conditions: for Heart rate: conscious infarct rats
Method: The following studies were performed on male Wistar rats (270 to 320 g, Harlan Zeist, Netherlands). The rats were kept in rooms with a 12 h light/dark cycle and had free access to standard rat diet and water. The animals underwent coronary artery ligation (MI rats) or sham operation without ligation (sham rats). After 24 hours the MI rats were randomized and implanted with osmotic minipumps (Alzet, Model 2001) in order to administer moxonidine in a dose of 3 or 6 mg/kg-day s.c. (subcutaneously) or only operated on without pump implant. The moxonidine treatment was continued up to the end of the experiment three weeks after the surgical procedure.
The left anterior descending coronary artery was ligated under pentobarbital anesthesia (60 mg/kg, i.p.). Brief description: after intubation of the trachea, an incision was made in the skin over the 4th intercostal space. The overlaying muscles were separated and kept aside. The animals were then placed on positive pressure ventilation (rate 65 to 70/min, stroke volume 3 ml) and the thoracic cavity was opened by cutting the intercostal muscles. The pericardium was opened. The heart was left in situ and a 6-0 silk suture was placed below the left coronary artery in the vicinity of the origin of the pulmonary artery. The suture was tightened. Sham rats were subjected to the same procedure but without actual ligation. The ribs were pulled together with 3-0 silk suture. The muscles were then returned to their original position and the skin was sutured.
The data obtained were expressed as group means ± SEM (standard error of the mean) unless otherwise stated. Only data of infarcted hearts with an infarct area covering the major portion of the free heart wall of the left ventricle were included in the evaluation since smaller infarct areas are usually fully compensated hemodynamically. The data were analyzed by one-way analysis of variance (ANOVA) followed by post-hoc Bonferroni analysis. Differences in the structural parameters in moxonidine treated and untreated infarcted hearts were determined by Student t-test independently for the two groups.
Four groups of rats were studied: 2 moxonidine-treated infarct rats (dosage 3 and 6 mg/kg·day), untreated infarct rats and sham-operated control rats (SHAM rats). Coronary artery ligation produced a main infarction in the free wall of the left ventricle. Total mortality of the experimental animals was 29% and was the same in both infarct groups. Data of five rats of the 6 mg/kg·day group had to be excluded since their infarct area was too small. The results of the tests are summarized in Table 1 for experiments with a dosage of 6 mg/kg·day and for a dosage of 3 mg/kg·day, and are explained in the following. The results shown in Table 1 comprise the data of groups of 7 to 14 rats with the exception of the collagen measurements, for which the data refer to groups of 6 to 7 rats.

[2] = system: Wistar rats with chronic myocardial infarction (MI); assay: Plasma noradrenaline (HPLC) and ANF (RIA) levels in MI rats; format: in vivo, rat; conditions: for Plasma NA (noradrenaline) level / Plasma ANF (atrial natriuretic factor): three weeks, mean ± SEM
Method: The following studies were performed on male Wistar rats (270 to 320 g, Harlan Zeist, Netherlands). The rats were kept in rooms with a 12 h light/dark cycle and had free access to standard rat diet and water. The animals underwent coronary artery ligation (MI rats) or sham operation without ligation (sham rats). After 24 hours the MI rats were randomized and implanted with osmotic minipumps (Alzet, Model 2001) in order to administer moxonidine in a dose of 3 or 6 mg/kg-day s.c. (subcutaneously) or only operated on without pump implant. The moxonidine treatment was continued up to the end of the experiment three weeks after the surgical procedure. The left anterior descending coronary artery was ligated under pentobarbital anesthesia (60 mg/kg, i.p.). Brief description: after intubation of the trachea, an incision was made in the skin over the 4th intercostal space. The overlaying muscles were separated and kept aside. […] The pericardium was opened. The heart was left in situ and a 6-0 silk suture was placed below the left coronary artery in the vicinity of the origin of the pulmonary artery. The suture was tightened. Sham rats were subjected to the same procedure but without actual ligation. The ribs were pulled together with 3-0 silk suture. The muscles were then returned to their original position and the skin was sutured. 19 days after the surgical procedure for coronary artery ligation the rats were again anesthetized with pentobarbital and a catheter (PE-10, heat-sealed with PE-50) was introduced through the femoral artery and placed in the abdominal aorta. The catheter was advanced subcutaneously as far as the animals' neck, where it was allowed to exit and was fixed and closed at the exit site. The rats were allowed a 2-day recovery period. On the day of sampling the catheter was lengthened with a heparin-treated, saline-filled tube and two 1-ml blood samples were collected after at least 60 minutes. Blood was collected in pre-cooled sample pots (syringes) prepared with 10 μl EDTA (0.1M). After centrifugation the plasma was collected in pre-cooled tubes containing either 1.2 mg glutathione or 10 μl aprotinin (100 KIU; KIU=kilo international units) in order to determine either catecholamines or atrial natriuretic factor (ANF). The tubes were stored at −80° C. The plasma concentrations of noradrenaline, adrenaline and dopamine were determined by HPLC, whereas the concentrations of ANF were analyzed using an RIA test. The data obtained were expressed as group means ± SEM (standard error of the mean) unless otherwise stated. Only data of infarcted hearts with an infarct area covering the major portion of the free heart wall of the left ventricle were included in the evaluation since smaller infarct areas are usually fully compensated hemodynamically. The data were analyzed by one-way analysis of variance (ANOVA) followed by post-hoc Bonferroni analysis. Differences in the structural parameters in moxonidine treated and untreated infarcted hearts were determined by Student t-test independently for the two groups.

[3] = system: Wistar rats with chronic myocardial infarction (MI); assay: Measurement of cardiac interstitial collagen (Sirius red) in MI rats; format: in vivo, rat; conditions: interventricular septum, infarct rats, three weeks, mean ± SEM
Method: The following studies were performed on male Wistar rats (270 to 320 g, Harlan Zeist, Netherlands). The rats were kept in rooms with a 12 h light/dark cycle and had free access to standard rat diet and water. The animals underwent coronary artery ligation (MI rats) or sham operation without ligation (sham rats). After 24 hours the MI rats were randomized and implanted with osmotic minipumps (Alzet, Model 2001) in order to administer moxonidine in a dose of 3 or 6 mg/kg-day s.c. (subcutaneously) or only operated on without pump implant. The moxonidine treatment was continued up to the end of the experiment three weeks after the surgical procedure. The left anterior descending coronary artery was ligated under pentobarbital anesthesia (60 mg/kg, i.p.). Brief description: after intubation of the trachea, an incision was made in the skin over the 4th intercostal space. […] The quantity of interstitial collagen was determined on 6 to 7 hearts randomly selected from each experimental group. […] The data obtained were expressed as group means ± SEM (standard error of the mean) unless otherwise stated. […] The data were analyzed by one-way analysis of variance (ANOVA) followed by post-hoc Bonferroni analysis. Differences in the structural parameters in moxonidine treated and untreated infarcted hearts were determined by Student t-test independently for the two groups.

[4] = infarct rats, moxonidine 3 mg/kg daily s.c., three weeks, mean ± SEM
[5] = infarct rats, moxonidine 6 mg/kg daily s.c., three weeks, mean ± SEM
[6] = infarct rats, moxonidine 6 mg/kg daily s.c.

Structure (SMILES): COc1nc(C)nc(Cl)c1NC1=NCCN1 [moxonidine, 4-chloro-5-[(4,5-dihydro-1H-imidazol-2-yl)-amino]-6-methoxy-2-methyl-pyrimidine]
- Heart rate ([1]; moxonidine 3 mg/kg daily s.c., three weeks, mean ± SEM): 334 ± 12 beats/min
- Heart rate ([1]; moxonidine 6 mg/kg daily s.c., three weeks, mean ± SEM): 321 ± 6 beats/min
- Heart weight [1, 4]: 1408 ± 104 mg
- Heart/Body weight ratio [1, 4]: 4.7 ± 0.4
- MAP (mean arterial pressure) [1, 4]: 87 ± 3 mmHg
- Heart weight [1, 5]: 1076 ± 24 mg
- MAP (mean arterial pressure) [1, 5]: 100 ± 5 mmHg
- Heart rate measured in conscious animals (in words) ([1]; moxonidine-treated infarct rats versus sham rats): slowing of cardiac activity (bradycardia) compared to the sham rats
- Body weight (in words) ([1]; moxonidine-treated infarct rats versus untreated infarct rats and sham rats): slightly lower body weight than the untreated infarct rats
- Cardiac weight (in words) ([1]; moxonidine-treated infarct rats versus untreated infarct rats, dosage depending 3 to 6 mg/kg·day): significantly lower than the cardiac weight of untreated infarct rats
- Total mortality of the experimental animals ([1]; the same in both infarct groups (treated and untreated)): 29%
- Plasma noradrenaline levels (in words) ([2]; infarct rats, 3 mg/kg·day group): clearly reduced
- Plasma noradrenaline levels (in words) ([2]; infarct rats, 6 mg/kg·day group, versus sham rats): almost half the values of the sham rats
- Plasma NA (noradrenaline) level ([2]; infarct rats, moxonidine 3 mg/kg daily s.c.): 345 ± 108 pg/mL
- Plasma ANF (atrial natriuretic factor) ([2]; infarct rats, moxonidine 3 mg/kg daily s.c., n-3): (54 ± 2, n-3) pg/ml
- Plasma ANF (atrial natriuretic factor) [2, 6]: 61 ± 8 pg/mL
- Plasma NA (noradrenaline) level [2, 6]: 96 ± 20 pg/mL
- Plasma ANF levels (in words) ([2]; moxonidine-treated infarct rats versus untreated infarct rats): unchanged compared to those of untreated infarct rats
- Plasma noradrenaline levels (in words) ([2]; moxonidine-treated infarct rats, dose not stated, versus sham rats): about half the value found for the sham rats
- Interstitial Collagen ([3]; moxonidine 3 mg/kg daily s.c.): 2.4 ± 0.2 %
- Interstitial Collagen ([3]; moxonidine 6 mg/kg daily s.c.): 1.4 ± 0.1%
